Data published in paper PMC12670405, “Second-Generation AURKA-Targeting PROTACs: Structural Optimization toward in Vivo Degradation in Neuroblastoma” (Journal of Medicinal Chemistry, 2025).

Legend:
Test in all cases: KINOMEscan scanMAX
Type in all cases: binding
Conditions in all cases: read-out: Percent Control
HIPK2 = biological target: T1, HIPK2 (Homo sapiens, UniProt Q9H2X6)
T1 construct: purchased Eurofins Discovery (DiscoverX KINOMEscan scanMAX)
Method: (§1) The kinome-wide binding assay was performed by Eurofins Discovery using the scanMAX screening platform. More information can be found on the Eurofins Discovery Web site.

CDC2L1 = biological target: T2, CDC2L1 (Homo sapiens, UniProt P21127)
T2 construct: purchased Eurofins Discovery (DiscoverX KINOMEscan scanMAX)
T2 sequence (P21127 whole entry): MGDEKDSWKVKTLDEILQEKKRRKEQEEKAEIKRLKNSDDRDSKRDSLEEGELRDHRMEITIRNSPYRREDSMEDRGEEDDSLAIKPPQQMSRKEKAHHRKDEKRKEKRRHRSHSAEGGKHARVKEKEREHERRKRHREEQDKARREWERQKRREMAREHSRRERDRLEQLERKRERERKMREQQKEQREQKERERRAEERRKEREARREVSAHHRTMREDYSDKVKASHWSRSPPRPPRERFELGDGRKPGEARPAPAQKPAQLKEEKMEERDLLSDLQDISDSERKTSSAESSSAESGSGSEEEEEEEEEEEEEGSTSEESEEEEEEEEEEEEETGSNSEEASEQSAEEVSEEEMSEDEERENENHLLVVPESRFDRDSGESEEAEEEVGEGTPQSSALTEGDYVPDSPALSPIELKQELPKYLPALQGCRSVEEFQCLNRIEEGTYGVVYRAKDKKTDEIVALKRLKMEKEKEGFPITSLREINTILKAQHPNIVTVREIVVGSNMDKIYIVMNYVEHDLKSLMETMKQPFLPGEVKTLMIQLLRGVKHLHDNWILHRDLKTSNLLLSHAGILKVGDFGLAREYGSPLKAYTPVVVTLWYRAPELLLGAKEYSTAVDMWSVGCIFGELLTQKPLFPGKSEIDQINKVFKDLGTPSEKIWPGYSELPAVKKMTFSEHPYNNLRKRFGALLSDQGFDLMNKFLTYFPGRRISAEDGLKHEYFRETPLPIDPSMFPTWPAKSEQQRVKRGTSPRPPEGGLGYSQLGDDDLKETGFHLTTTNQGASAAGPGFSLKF
Method: as §1

BIKE = biological target: T3, BIKE (Homo sapiens, UniProt Q9NSY1)
T3 construct: purchased Eurofins Discovery (DiscoverX KINOMEscan scanMAX)
Method: as §1

STK35 = biological target: T4, STK35 (Homo sapiens, UniProt Q8TDR2)
T4 construct: purchased Eurofins Discovery (DiscoverX KINOMEscan scanMAX)
Method: as §1

PRKCE = biological target: T5, PRKCE (Homo sapiens, UniProt Q02156)
T5 construct: purchased Eurofins Discovery (DiscoverX KINOMEscan scanMAX)
Method: as §1

SNRK = biological target: T6, SNRK (Homo sapiens, UniProt Q9NRH2)
T6 construct: purchased Eurofins Discovery (DiscoverX KINOMEscan scanMAX)
T6 sequence (Q9NRH2 whole entry): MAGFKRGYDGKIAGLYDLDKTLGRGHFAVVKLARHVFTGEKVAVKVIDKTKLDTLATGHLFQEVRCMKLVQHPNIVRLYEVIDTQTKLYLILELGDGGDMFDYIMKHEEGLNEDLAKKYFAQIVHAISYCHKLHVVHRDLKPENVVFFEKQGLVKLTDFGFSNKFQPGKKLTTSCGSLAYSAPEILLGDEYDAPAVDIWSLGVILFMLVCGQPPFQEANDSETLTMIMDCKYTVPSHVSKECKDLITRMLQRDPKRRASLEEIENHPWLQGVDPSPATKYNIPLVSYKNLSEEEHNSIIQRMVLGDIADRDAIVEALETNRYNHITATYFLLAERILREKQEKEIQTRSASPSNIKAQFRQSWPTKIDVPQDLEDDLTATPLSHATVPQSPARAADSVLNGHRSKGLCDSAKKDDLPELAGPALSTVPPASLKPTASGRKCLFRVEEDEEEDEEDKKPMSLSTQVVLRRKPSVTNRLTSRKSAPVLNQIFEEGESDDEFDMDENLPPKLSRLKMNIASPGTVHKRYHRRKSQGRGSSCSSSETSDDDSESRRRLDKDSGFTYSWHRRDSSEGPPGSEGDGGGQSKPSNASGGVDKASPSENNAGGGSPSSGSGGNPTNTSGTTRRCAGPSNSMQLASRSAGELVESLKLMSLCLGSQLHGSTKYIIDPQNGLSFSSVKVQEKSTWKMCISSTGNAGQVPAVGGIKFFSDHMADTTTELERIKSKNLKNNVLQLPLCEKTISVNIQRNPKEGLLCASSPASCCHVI
Method: as §1

CDK11 = biological target: T7, CDK11 (Homo sapiens, UniProt Q9BWU1)
T7 construct: purchased Eurofins Discovery (DiscoverX KINOMEscan scanMAX)
Method: as §1

ERBB2 = biological target: T8, ERBB2 (Homo sapiens, UniProt P04626)
T8 construct: purchased Eurofins Discovery (DiscoverX KINOMEscan scanMAX)
T8 sequence (P04626 23-1255): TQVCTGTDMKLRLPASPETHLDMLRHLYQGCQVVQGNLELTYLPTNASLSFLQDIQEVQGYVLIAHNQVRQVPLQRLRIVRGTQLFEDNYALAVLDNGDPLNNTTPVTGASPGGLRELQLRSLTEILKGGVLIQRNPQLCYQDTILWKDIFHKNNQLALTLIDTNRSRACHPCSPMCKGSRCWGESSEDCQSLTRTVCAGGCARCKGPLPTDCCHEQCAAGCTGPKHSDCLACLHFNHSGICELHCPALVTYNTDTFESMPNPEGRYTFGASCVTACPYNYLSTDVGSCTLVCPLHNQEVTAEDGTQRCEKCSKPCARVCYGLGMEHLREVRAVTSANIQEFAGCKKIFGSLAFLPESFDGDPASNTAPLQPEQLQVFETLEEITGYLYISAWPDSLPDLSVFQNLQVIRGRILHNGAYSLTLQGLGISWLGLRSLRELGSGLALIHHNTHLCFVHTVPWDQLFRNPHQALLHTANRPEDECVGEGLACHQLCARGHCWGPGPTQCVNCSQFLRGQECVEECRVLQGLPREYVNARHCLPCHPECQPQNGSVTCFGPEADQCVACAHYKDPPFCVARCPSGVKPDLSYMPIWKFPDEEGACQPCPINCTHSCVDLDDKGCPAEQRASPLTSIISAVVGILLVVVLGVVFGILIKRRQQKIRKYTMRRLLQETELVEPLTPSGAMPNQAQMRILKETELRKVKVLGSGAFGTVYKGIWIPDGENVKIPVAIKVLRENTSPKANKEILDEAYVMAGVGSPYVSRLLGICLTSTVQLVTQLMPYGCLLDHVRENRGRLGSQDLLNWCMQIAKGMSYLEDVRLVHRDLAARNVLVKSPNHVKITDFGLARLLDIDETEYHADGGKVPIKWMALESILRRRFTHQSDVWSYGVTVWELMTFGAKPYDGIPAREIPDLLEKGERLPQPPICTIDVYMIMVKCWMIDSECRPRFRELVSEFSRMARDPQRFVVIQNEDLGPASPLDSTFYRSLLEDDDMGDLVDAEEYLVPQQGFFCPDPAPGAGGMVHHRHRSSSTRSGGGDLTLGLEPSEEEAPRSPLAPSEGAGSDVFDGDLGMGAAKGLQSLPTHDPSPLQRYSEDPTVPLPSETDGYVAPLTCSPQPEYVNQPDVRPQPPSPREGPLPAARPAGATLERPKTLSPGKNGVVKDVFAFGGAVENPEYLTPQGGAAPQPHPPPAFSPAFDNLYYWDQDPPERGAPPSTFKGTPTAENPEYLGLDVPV
Method: as §1

PRKCQ = biological target: T9, PRKCQ (Homo sapiens, UniProt Q04759)
T9 construct: purchased Eurofins Discovery (DiscoverX KINOMEscan scanMAX)
Method: as §1

RIPK2 = biological target: T10, RIPK2 (Homo sapiens, UniProt O43353)
T10 construct: purchased Eurofins Discovery (DiscoverX KINOMEscan scanMAX)
Method: as §1

EPHA4 = biological target: T11, EPHA4 (Homo sapiens, UniProt P54764)
T11 construct: purchased Eurofins Discovery (DiscoverX KINOMEscan scanMAX)
T11 sequence (P54764 20-986): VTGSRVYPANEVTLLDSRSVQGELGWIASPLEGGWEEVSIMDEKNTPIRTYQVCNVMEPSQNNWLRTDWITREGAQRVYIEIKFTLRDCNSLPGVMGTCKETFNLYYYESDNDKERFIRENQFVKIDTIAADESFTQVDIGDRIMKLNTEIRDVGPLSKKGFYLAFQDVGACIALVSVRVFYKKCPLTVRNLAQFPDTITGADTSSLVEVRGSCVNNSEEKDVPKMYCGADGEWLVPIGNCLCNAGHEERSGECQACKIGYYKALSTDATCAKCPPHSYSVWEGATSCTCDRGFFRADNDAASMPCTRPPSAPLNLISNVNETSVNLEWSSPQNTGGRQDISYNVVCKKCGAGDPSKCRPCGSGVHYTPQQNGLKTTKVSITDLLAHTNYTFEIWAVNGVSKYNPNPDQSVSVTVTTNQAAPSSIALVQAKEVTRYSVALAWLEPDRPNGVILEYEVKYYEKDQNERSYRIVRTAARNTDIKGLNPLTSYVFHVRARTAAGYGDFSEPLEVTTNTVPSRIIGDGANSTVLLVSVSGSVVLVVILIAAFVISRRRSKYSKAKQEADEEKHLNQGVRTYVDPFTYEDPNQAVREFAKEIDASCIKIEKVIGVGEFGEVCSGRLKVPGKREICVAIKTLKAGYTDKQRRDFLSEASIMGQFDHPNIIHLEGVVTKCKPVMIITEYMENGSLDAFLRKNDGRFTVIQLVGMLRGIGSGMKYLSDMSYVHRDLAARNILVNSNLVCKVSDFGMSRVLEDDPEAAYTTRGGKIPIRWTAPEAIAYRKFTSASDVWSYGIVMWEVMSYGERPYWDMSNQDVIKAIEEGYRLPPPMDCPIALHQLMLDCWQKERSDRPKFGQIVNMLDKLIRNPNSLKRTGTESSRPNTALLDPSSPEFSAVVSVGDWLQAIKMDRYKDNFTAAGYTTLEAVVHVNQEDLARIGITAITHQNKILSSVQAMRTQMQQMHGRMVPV
Method: as §1

PKAC-beta = biological target: T12, PKAC-beta (Homo sapiens, UniProt P22694)
T12 construct: purchased Eurofins Discovery (DiscoverX KINOMEscan scanMAX)
Method: as §1

DRAK1 = biological target: T13, DRAK1 (Homo sapiens, UniProt Q9UEE5)
T13 construct: purchased Eurofins Discovery (DiscoverX KINOMEscan scanMAX)
Method: as §1

ICK = biological target: T14, ICK (Homo sapiens, UniProt Q9UPZ9)
T14 construct: purchased Eurofins Discovery (DiscoverX KINOMEscan scanMAX)
T14 sequence (Q9UPZ9 whole entry): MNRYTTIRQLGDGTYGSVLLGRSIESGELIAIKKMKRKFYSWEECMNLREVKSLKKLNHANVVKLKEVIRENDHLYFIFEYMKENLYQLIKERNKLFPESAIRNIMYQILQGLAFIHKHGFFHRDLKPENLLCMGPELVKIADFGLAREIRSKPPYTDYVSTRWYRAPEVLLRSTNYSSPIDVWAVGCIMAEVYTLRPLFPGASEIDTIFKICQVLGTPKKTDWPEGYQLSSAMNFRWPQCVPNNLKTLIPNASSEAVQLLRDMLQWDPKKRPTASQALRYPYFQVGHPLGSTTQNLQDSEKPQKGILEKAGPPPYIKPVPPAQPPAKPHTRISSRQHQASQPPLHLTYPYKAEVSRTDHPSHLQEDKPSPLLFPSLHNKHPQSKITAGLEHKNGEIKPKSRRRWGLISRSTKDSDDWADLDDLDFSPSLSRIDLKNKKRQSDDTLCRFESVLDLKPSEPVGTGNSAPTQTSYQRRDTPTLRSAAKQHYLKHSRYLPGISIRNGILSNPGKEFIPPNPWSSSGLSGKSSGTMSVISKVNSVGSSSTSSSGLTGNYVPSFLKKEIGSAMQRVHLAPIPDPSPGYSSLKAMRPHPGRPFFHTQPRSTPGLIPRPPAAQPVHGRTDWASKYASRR
Method: as §1

MST3 = biological target: T15, MST3 (Homo sapiens, UniProt Q9Y6E0)
T15 construct: purchased Eurofins Discovery (DiscoverX KINOMEscan scanMAX)
Method: as §1

WEE2 = biological target: T16, WEE2 (Homo sapiens, UniProt P0C1S8)
T16 construct: purchased Eurofins Discovery (DiscoverX KINOMEscan scanMAX)
Method: as §1

FAK = biological target: T17, FAK (Homo sapiens, UniProt Q05397)
T17 construct: purchased Eurofins Discovery (DiscoverX KINOMEscan scanMAX)
Method: as §1

STK16 = biological target: T18, STK16 (Homo sapiens, UniProt O75716)
T18 construct: purchased Eurofins Discovery (DiscoverX KINOMEscan scanMAX)
Method: as §1

MEK4 = biological target: T19, MEK4 (Homo sapiens, UniProt P45985)
T19 construct: purchased Eurofins Discovery (DiscoverX KINOMEscan scanMAX)
Method: as §1

TESK1 = biological target: T20, TESK1 (Homo sapiens, UniProt Q15569)
T20 construct: purchased Eurofins Discovery (DiscoverX KINOMEscan scanMAX)
Method: as §1

NDR1 = biological target: T21, NDR1 (Homo sapiens, UniProt Q15208)
T21 construct: purchased Eurofins Discovery (DiscoverX KINOMEscan scanMAX)
Method: as §1

IRAK1 = biological target: T22, IRAK1 (Homo sapiens, UniProt P51617)
T22 construct: purchased Eurofins Discovery (DiscoverX KINOMEscan scanMAX)
Method: as §1

PRKCH = biological target: T23, PRKCH (Homo sapiens, UniProt P24723)
T23 construct: purchased Eurofins Discovery (DiscoverX KINOMEscan scanMAX)
Method: as §1

ASK1 = biological target: T24, ASK1 (Homo sapiens, UniProt Q99683)
T24 construct: purchased Eurofins Discovery (DiscoverX KINOMEscan scanMAX)
Method: as §1

CAMKK1 = biological target: T25, CAMKK1 (Homo sapiens, UniProt Q8N5S9)
T25 construct: purchased Eurofins Discovery (DiscoverX KINOMEscan scanMAX)
T25 sequence (Q8N5S9 whole entry): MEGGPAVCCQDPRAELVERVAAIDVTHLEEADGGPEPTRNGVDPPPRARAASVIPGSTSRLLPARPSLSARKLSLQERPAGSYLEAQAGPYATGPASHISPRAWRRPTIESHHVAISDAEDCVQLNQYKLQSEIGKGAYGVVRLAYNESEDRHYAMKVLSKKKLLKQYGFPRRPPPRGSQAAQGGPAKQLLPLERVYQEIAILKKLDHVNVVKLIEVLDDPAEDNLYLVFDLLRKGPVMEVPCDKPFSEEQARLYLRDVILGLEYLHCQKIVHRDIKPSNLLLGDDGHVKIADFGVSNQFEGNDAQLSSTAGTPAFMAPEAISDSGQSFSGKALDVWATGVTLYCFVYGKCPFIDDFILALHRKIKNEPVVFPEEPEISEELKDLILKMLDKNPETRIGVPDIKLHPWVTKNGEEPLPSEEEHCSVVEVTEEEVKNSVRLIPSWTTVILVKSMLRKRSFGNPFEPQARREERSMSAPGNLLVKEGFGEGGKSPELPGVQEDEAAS
Method: as §1

ERK1 = biological target: T26, ERK1 (Homo sapiens, UniProt P27361)
T26 construct: purchased Eurofins Discovery (DiscoverX KINOMEscan scanMAX)
Method: as §1

RET = biological target: T27, RET (Homo sapiens, UniProt P07949)
T27 construct: purchased Eurofins Discovery (DiscoverX KINOMEscan scanMAX)
Method: as §1

CHEK1 = biological target: T28, CHEK1 (Homo sapiens, UniProt O14757)
T28 construct: purchased Eurofins Discovery (DiscoverX KINOMEscan scanMAX)
Method: as §1

TNIK = biological target: T29, TNIK (Homo sapiens, UniProt Q9UKE5)
T29 construct: purchased Eurofins Discovery (DiscoverX KINOMEscan scanMAX)
Method: as §1

MEK1 = biological target: T30, MEK1 (Homo sapiens, UniProt Q02750)
T30 construct: purchased Eurofins Discovery (DiscoverX KINOMEscan scanMAX)
Method: as §1

KIT(V559D,T670I) = biological target: T31, KIT(V559D,T670I) (Homo sapiens, UniProt P10721, T670I/V559D)
T31 construct: purchased Eurofins Discovery (DiscoverX KINOMEscan scanMAX)
Method: as §1

SYK = biological target: T32, SYK (Homo sapiens, UniProt P43405)
T32 construct: purchased Eurofins Discovery (DiscoverX KINOMEscan scanMAX)
Method: as §1

ADCK3 = biological target: T33, ADCK3 (Homo sapiens, UniProt Q8NI60)
T33 construct: purchased Eurofins Discovery (DiscoverX KINOMEscan scanMAX)
Method: as §1

PIK3CB = biological target: T34, PIK3CB (Homo sapiens, UniProt P42338)
T34 construct: purchased Eurofins Discovery (DiscoverX KINOMEscan scanMAX)
Method: as §1

CSNK1D = biological target: T35, CSNK1D (Homo sapiens, UniProt P48730)
T35 construct: purchased Eurofins Discovery (DiscoverX KINOMEscan scanMAX)
Method: as §1

SMILES: Cc1cc(Nc2ccc(F)c(CC3(C(=O)N4CCC(F)(CN5CCN(c6ccc(N7CCC(=O)NC7=O)cn6)CC5)CC4)CCN(Cc4cccc(Cl)c4F)CC3)n2)n[nH]1 [SK5527]
- remaining binding at 0.1 µM (HIPK2; 100 nM): 100%
- remaining binding at 1 µM (HIPK2; 1000 nM): 91%
- remaining binding at 0.1 µM (CDC2L1; 100 nM): 98%
- remaining binding at 1 µM (CDC2L1; 1000 nM): 95%
- remaining binding at 0.1 µM (BIKE; 100 nM): 80%
- remaining binding at 1 µM (BIKE; 1000 nM): 73%
- remaining binding at 0.1 µM (STK35; 100 nM): 99%
- remaining binding at 1 µM (STK35; 1000 nM): 80%
- remaining binding at 0.1 µM (PRKCE; 100 nM): 100%
- remaining binding at 1 µM (PRKCE; 1000 nM): 95%
- remaining binding at 0.1 µM (SNRK; 100 nM): 71%
- remaining binding at 1 µM (SNRK; 1000 nM): 53%
- remaining binding at 0.1 µM (CDK11; 100 nM): 92%
- remaining binding at 1 µM (CDK11; 1000 nM): 85%
- remaining binding at 0.1 µM (ERBB2; 100 nM): 100%
- remaining binding at 1 µM (ERBB2; 1000 nM): 100%
- remaining binding at 0.1 µM (PRKCQ; 100 nM): 100%
- remaining binding at 1 µM (PRKCQ; 1000 nM): 94%
- remaining binding at 0.1 µM (RIPK2; 100 nM): 80%
- remaining binding at 1 µM (RIPK2; 1000 nM): 88%
- remaining binding at 0.1 µM (EPHA4; 100 nM): 91%
- remaining binding at 1 µM (EPHA4; 1000 nM): 100%
- remaining binding at 0.1 µM (PKAC-beta; 100 nM): 90%
- remaining binding at 1 µM (PKAC-beta; 1000 nM): 100%
- remaining binding at 0.1 µM (DRAK1; 100 nM): 100%
- remaining binding at 1 µM (DRAK1; 1000 nM): 87%
- remaining binding at 0.1 µM (ICK; 100 nM): 92%
- remaining binding at 1 µM (ICK; 1000 nM): 48%
- remaining binding at 0.1 µM (MST3; 100 nM): 100%
- remaining binding at 1 µM (MST3; 1000 nM): 100%
- remaining binding at 0.1 µM (WEE2; 100 nM): 79%
- remaining binding at 1 µM (WEE2; 1000 nM): 88%
- remaining binding at 0.1 µM (FAK; 100 nM): 90%
- remaining binding at 1 µM (FAK; 1000 nM): 77%
- remaining binding at 0.1 µM (STK16; 100 nM): 100%
- remaining binding at 1 µM (STK16; 1000 nM): 69%
- remaining binding at 0.1 µM (MEK4; 100 nM): 94%
- remaining binding at 1 µM (MEK4; 1000 nM): 73%
- remaining binding at 0.1 µM (TESK1; 100 nM): 66%
- remaining binding at 1 µM (TESK1; 1000 nM): 83%
- remaining binding at 0.1 µM (NDR1; 100 nM): 98%
- remaining binding at 1 µM (NDR1; 1000 nM): 82%
- remaining binding at 0.1 µM (IRAK1; 100 nM): 94%
- remaining binding at 1 µM (IRAK1; 1000 nM): 76%
- remaining binding at 0.1 µM (PRKCH; 100 nM): 96%
- remaining binding at 1 µM (PRKCH; 1000 nM): 100%
- remaining binding at 0.1 µM (ASK1; 100 nM): 91%
- remaining binding at 1 µM (ASK1; 1000 nM): 92%
- remaining binding at 0.1 µM (CAMKK1; 100 nM): 100%
- remaining binding at 1 µM (CAMKK1; 1000 nM): 100%
- remaining binding at 0.1 µM (ERK1; 100 nM): 94%
- remaining binding at 1 µM (ERK1; 1000 nM): 94%
- remaining binding at 0.1 µM (RET; 100 nM): 88%
- remaining binding at 1 µM (RET; 1000 nM): 39%
- remaining binding at 0.1 µM (CHEK1; 100 nM): 100%
- remaining binding at 1 µM (CHEK1; 1000 nM): 100%
- remaining binding at 0.1 µM (TNIK; 100 nM): 96%
- remaining binding at 1 µM (TNIK; 1000 nM): 90%
- remaining binding at 0.1 µM (MEK1; 100 nM): 76%
- remaining binding at 1 µM (MEK1; 1000 nM): 72%
- remaining binding at 0.1 µM (KIT(V559D,T670I); 100 nM): 100%
- remaining binding at 1 µM (KIT(V559D,T670I); 1000 nM): 89%
- remaining binding at 0.1 µM (SYK; 100 nM): 83%
- remaining binding at 1 µM (SYK; 1000 nM): 100%
- remaining binding at 0.1 µM (ADCK3; 100 nM): 100%
- remaining binding at 1 µM (ADCK3; 1000 nM): 99%
- remaining binding at 0.1 µM (PIK3CB; 100 nM): 78%
- remaining binding at 1 µM (PIK3CB; 1000 nM): 95%
- remaining binding at 0.1 µM (CSNK1D; 100 nM): 98%
- remaining binding at 1 µM (CSNK1D; 1000 nM): 91%
